Patent US20050096360A1, “Inhibitors of semicarbazide-sensitive amine oxidase (SSAO) and VAP-1 mediated adhesion useful for treatment of diseases” (priority 2003, published 2005)
Structures can show the parent of a compound that is named as a salt.

Tests used:
[1] = system: EAE in C57BL/6 mice; test: Experimental autoimmune encephalomyelitis (EAE), MOG 35-55; format: in vivo; settings: separate experiment, same protocol, FIG. 3
Protocol: SSAO/VAP-1 is expressed on the endothelium of inflamed tissues/organs including brain and spinal cord. Its ability to support lymphocyte transendothelial migration may be an important systemic function of SSAO/VAP-1 in inflammatory diseases such as multiple sclerosis and Alzheimer's disease. An analysis of the use of SSAO inhibitors to treat inflammatory disease of the central nervous system (CNS) was performed through the use of an experimental autoimmune encephalomyelitis model (EAE) in C57BL/6 mice. EAE in rodents is a well-characterized and reproducible animal model of multiple sclerosis in human (Benson J. M. et al. (2000) J. Clin. Invest. 106:1031). Multiple sclerosis is a chronic immune-mediated disease of the CNS characterized by pachy perivenular inflammatory infiltrates in areas of demyelination and axonal loss. As an animal model, EAE can be induced in mice by immunization with encephalitogenic myelin antigens in the presence of adjuvant. The pathogenesis of EAE comprises presentation of myelin antigens to T cells, migration of activated T cells to the CNS, and development of inflammation and/or demyelination upon recognition of the same antigens.
Thirty female C57BL/6 mice were immunized subcutaneously (s.c). with myelin oligodendrocyte glycoprotein 35-55 (MOG peptide 35-55) in Complete Freund Adjuvant (CFA) on day 0, followed by i.p. injections of pertussis toxin (one pertussis toxin injection on day 0, a second pertussis toxin injection on day 2). Groups of 10 mice received either the allylamine compound mofegiline (AA, 10 mg/kg/dose, twice daily for 18 consecutive days), methotrexate (2.5 mg/kg/day, every other day (Mon., Weds., Fri.) till day 18) or vehicle control (twice/day for 18 consecutive days) all-starting from one day after the immunization and all administered i.p. Then animals were monitored for body weight, signs of paralysis and death according to a 0-5 scale of scoring system as follows: 1=limp tail or waddling gait with tail tonicity; 2=waddling gait with limp tail (ataxia); 2.5=ataxia with partial limb paralysis; 3=full paralysis of one limb; 3.5=full paralysis of one limb with partial paralysis of second limb; 4=full paralysis of two limbs; 4.5=moribund; 5=death. Results are shown in FIG. 2A, FIG. 2B, and FIG. 2C. […] (p=0.04 by repeated measure analysis to assess the treatment effect. Proper polynomial transformation, with the spacing corresponding to the collection days, was applied to test the time effect). Statistically significant differences in diseases severity between the AA and vehicle-treated groups, continued even after stopping compound administration and were observed until the end of the study (d25) .

[2] = target: T1, SSAO activity in rat aorta and lung (Rattus norvegicus, UniProt O08590); test: In vivo inhibition of SSAO after single oral dose, radioactive assay; settings: 4 hrs after treatment
T1 construct: the animals were euthanized and their aortas and lungs removed and frozen in liquid nitrogen; from tissue; host or cells: aorta and lung of female Sprague Dawley rats
T1 sequence (O08590 1-763): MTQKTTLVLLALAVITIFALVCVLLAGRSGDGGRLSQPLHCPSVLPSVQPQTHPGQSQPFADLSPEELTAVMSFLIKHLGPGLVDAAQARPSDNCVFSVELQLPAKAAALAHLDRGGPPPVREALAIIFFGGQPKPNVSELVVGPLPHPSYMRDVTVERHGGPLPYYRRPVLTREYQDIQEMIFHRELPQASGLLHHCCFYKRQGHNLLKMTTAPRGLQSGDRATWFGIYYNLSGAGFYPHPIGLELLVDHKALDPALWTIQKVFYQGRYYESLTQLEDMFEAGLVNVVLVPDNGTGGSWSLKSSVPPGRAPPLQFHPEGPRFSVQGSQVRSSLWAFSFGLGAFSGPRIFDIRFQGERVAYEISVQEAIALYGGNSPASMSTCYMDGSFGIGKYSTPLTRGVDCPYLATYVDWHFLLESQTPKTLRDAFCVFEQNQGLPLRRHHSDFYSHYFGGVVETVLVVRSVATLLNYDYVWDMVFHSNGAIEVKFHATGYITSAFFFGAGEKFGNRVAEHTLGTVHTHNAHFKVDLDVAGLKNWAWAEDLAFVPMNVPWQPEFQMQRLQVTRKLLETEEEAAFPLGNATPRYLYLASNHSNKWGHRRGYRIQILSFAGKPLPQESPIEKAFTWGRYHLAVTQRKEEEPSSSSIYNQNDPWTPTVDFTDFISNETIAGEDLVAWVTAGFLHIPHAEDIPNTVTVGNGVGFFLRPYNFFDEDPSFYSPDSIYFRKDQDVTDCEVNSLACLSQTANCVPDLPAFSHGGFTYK
Protocol: In vivo inhibition of SSAO was assessed in rat aorta and lungs, two of the tissues where SSAO activity is highest. Six week old female Sprague Dawley rats were administered 0, 0.1, 1, 10 and 50 mg/kg of the compound of example 8 in 2.5 ml/kg PBS by oral gavage. Four hours after compound administration the animals were euthanized and their aortas and lungs removed and frozen in liquid nitrogen. Tissues were homogenized in 0.1 M potassium phosphate pH 7.8 buffer (30 ml/g for aorta and 20 ml/g for lung) and centrifuged at 1000×g for 15 min. Supernatants were collected and used in the radioactive assay following the protocol described by Lizcano J. M. et al. (1998) Biochem. J. 331:69. Enzymatic reactions were initiated by incubating a 200 μl aliquot of the tissue homogenate with 20 μl of 0.4 mM ^14C-labeled benzylamine substrate (6 mCi/mmol specific activity, Pharmacia) for 30 min at RT. The assay was stopped by addition of 100 μl of 2 M citric acid, the assay volume was extracted with 5 ml toluene:ethyl acetate (1:1) containing 0.6% (w/v) 2,5-diphenyloxdazole (PPO), and an aliquot of the organic layer was counted by liquid scintillation. […] These inhibitors were added to the tissue supernatant prior to addition of benzylamine.

| Structure (SMILES) | development and severity of disease [1] | ED50, in vivo inhibition of SSAO activity in aorta ([2]; rat aorta) | ED50, in vivo inhibition of SSAO activity in lung ([2]; rat lung) |
| --- | --- | --- | --- |
| C=C(CNN)c1ccccc1 [Example 2, Hydrochloride] | clearly had a therapeutic effect | – | – |
| C=C(CNN)c1ccc(F)cc1.Cl [Example 8, N-[2-(4′-fluorophenyl)-allyl]-hydrazine Hydrochloride] | – | 5 mg/kg | 0.72 mg/kg |
